Measured values published in patent publication US10166237B2, “Compounds and methods for inducing chondrogenesis” (The Scripps Research Institute, priority 2011, dated 2019).
pEC50: −log10 of the molar value. Like-named read-outs stand apart in the source and are kept apart here.

How the values were obtained:
female 129SVE mice = experiment: surgically induced cartilage injury (ACL, MCL, MMTL transection); type: in vivo; conditions: IA injection days 7, 14 and 21
Procedure: Surgical transection of the ACL, MCL, and MMTL was performed to induce cartilage injury in female 129SVE mice. Mice were dosed by IA injection on days 7, 14 and 21. The medial tibial plateaus from representative mice were assessed on day 28 (FIG. 4A). Histomorphometric analyses and grading by two blinded observers using a modified OARSI scoring system determined the joint severity scores of the […] tibial plateau on day 28 after surgical induction (FIG. 4B). At 28 days, peripheral blood was collected by retro-orbital bleeding and the serum was used to determine the cleaved type II collagen fragments (CTX-II levels) by ELISA (Serum Pre-Clinical Cartilaps, Immunodiagnostic Systems, Fountain Hills, Ariz.). n=15/treatment group (FIG. 4C).

chondrocytes = experiment: toxicity in chondrocytes; type: cell-based; conditions: 100 μM
HEK 293 cells = experiment: toxicity in HEK 293 cells; type: cell-based; conditions: 100 μM
[1] = in vivo, 0.05 mg/kg
hMSCs = experiment: type II collagen expression in hMSC cultures (18 day assay); type: cell-based, human
Procedure: The chondrogenic differentiation event was initiated quickly even though a fully differentiated chondrocyte phenotype cannot be assessed prior to 14 days in culture. In an 18 day assay, compound treatment was only required for the first 48 hrs and followed by removal and replacement of the media (in the absence of stimuli, FIG. 2B). The promotion of chondrogenic differentiation was not altered or enhanced upon longer treatment with the stimuli (data not shown).
Primary hMSCs were plated (10,000/well) in 384-well plates and cultured for 18 days. The cells were fixed with 4% formalin, permeabilized with triton (0.5%), digested with 0.5 mg/ml collagenase II to unwind the collagen fibrils, and then immunostained with an antibody recognizing type II collagen. DAPI (2 μg/ml) was added to visualize the nuclei. The chondrogenic nodules stained positive for type II collagen but lacked expression of type X collagen and osteocalcin, markers for chondrocyte hypertrophy and osteoblasts, respectively (not shown). 10,000 hMSCs (passages 3-5) were plated in Greiner 384-well low-bottom plates on day 1. The cells were allowed to adhere and stimulated for 48 hrs (days 2-3) with the indicated stimuli in MSC growth media (Millipore). The media was then removed and replaced with serum-free DMEM for an additional 16 days. This media was replenished on days 10 and 15 of the assay. Primary bovine chondrocytes were isolated from the articular surfaces from mature knees. After one week of culture, 8,500 cells were trypsinized and plated in Greiner 384-well white clear-bottom plates in growth media. […] 20 μl of the supernatant was mixed with 20 μl of the Greiss reagent and quantitated at 540 nm as described by the Promega kit instructions. Bovine cartilage explants (cut in circular explants in a 96 well plate) were cultured in the presence of 20 ng/ml TNFα and 10 ng/ml oncostatin M to induce GAG release for 72 hours (FIG. 2D). PRO1 was added at the indicated concentrations during the entire 72 hrs. […] Parafin sections were hydrated, incubated in low pH Antigen unmasking solution (Vector) at 90 C for 10 minutes, permeabilized with 0.1% collagenase II (only for the sections stained with type II collagen) for 10 minutes, blocked with CAS block for 10 minutes and then incubated with the primary antibody (type II collagen, aggrecan or Timp1) antibody (Abcam) overnight at 4 C. The antigens were visualized through standard ABC detection methods and developed with DAB. Representative of 3 sections stained/treatment group (independent experiments).

[2] = system: human mesenchymal stem cells (hMSCs); experiment: chondrogenic nodule formation by hMSCs (high throughput screen); type: cell-based
Outline: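 Primary hMSCs (10^4/well) in serum-free DMEM exposed to compounds at 5 μM for 4 days. Chondrogenic nodules stained with Nile red (binds collagens) and counted by high-content imaging with 488 laser excitation. In 96-well follow-up, 50,000 cells/well treated 4 days, formalin-fixed, stained with 1 μg/ml Rhodamine B.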

[3] = system: bovine cartilage explants; experiment: cytokine-induced GAG release from cartilage explants ex vivo; type: cell-based; conditions: TNFα and oncostatin M, 72 hours; up to
From the text: In the screen, hMSCs were used as a surrogate to future targeting of the resident MSCs with the cartilage joint. It was in that setting upon which we identified PRO1. In a joint injury, the primary cell type a therapeutic would have contact with is the chondrocyte. Although cartilage or chondrocyte-targeted screening has not lead to the development of a successful drug modifying osteoarthritis drug (DMOAD) to date, it is believed that a stem cell-based therapeutic would protect and even repair the existing chondrocytes. Therefore, protection of the articular chondrocytes and cartilage from a mature bovine knee was assessed. PRO1 and its analogues were incubated with primary bovine chondrocytes or cartilage explants cultures grown in the presence of TNFα and oncostatin M to mimic the cytokine-induced damage that can occur during OA. In the presence of the cytokine cocktail, in vitro cultured primary chondrocytes released 4-5 fold more nitric oxide (NO) than the untreated chondrocytes (50 μM vs 10 μM) as measured by the Greiss reaction. […]
Primary hMSCs were plated (10,000/well) in 384-well plates and cultured for 18 days. […] 20 μl of the supernatant was mixed with 20 μl of the Greiss reagent and quantitated at 540 nm as described by the Promega kit instructions. […]

synovial fibroblasts = experiment: toxicity in synovial fibroblasts; type: cell-based; conditions: 100 μM

For `O=C(O)c1ccccc1C(=O)Nc1ccc(-c2ccccc2)cc1` [AKT], which cartilage damage (female 129SVE mice; day 28) is on record?
Its cartilage damage is “Protection”.

What about the “CTX-II peptide in plasma” value (female 129SVE mice; day 28, ELISA) of the same compound?
Its value is “Inhibition”.

What about the toxicity (chondrocytes) of the same compound?
The toxicity was “No toxicity”.

What about the toxicity (HEK 293 cells) of the same compound?
Its toxicity is “No toxicity”.

And the “Plasma Conc.” value [1]?
The value was “BLQ”.

What about the EC50 (hMSCs) of the same compound?
The EC50 was 0.08 µM.

And the “induction of chondrogenic differentiation of hMSCs” value (hMSCs; compared with known inducers TGFβ3, BMP7 or BMP2, FIG. 2B)?
The value was “more potent and efficient”.

And the cartilage nodule formation ([2]; 100 nM, 4 days, Rhodamine B stain)?
Its cartilage nodule formation is “Rapid Phenotypic Cartilage Nodule Formation”.

What about the pEC50 ([2]; Homo sapiens, Mesenchymal stem cells, 96 h, primary screen, Nile red stained nodules, 4 days, read-out: EC50) of the same compound?
Its pEC50 is 7.00.

And the EC50 ([2]; first value of the cell (before the slash), read-out: CHONDROGENIC μM EC50)?
The EC50 was 0.225 µM.

What about the “reduction of cytokine-induced release of glycosaminoglycans (GAG)” value [3] of the same compound?
Its value is “up to 60%”.

What about the toxicity (synovial fibroblasts) of the same compound?
The toxicity was “No toxicity”.
